These results are taken from patent US7358249B2, “Heterocyclic compounds having inhibitory activity against HIV integrase” (Shionogi & Co., Ltd., priority 2002, dated 2008).

Where “and” joins values, the source holds several entries; their conditions need not be identical. Equal values may be shown once. Where a name gives a salt, the structure may show the parent alone.

As for `COCCCC(=O)c1ncc2cc(Cc3ccc(F)cc3)cnc2c1O`, the melting point (usually the temperature of the solid-liquid transition) was in the range of 117 to 118 °C.

In turn, `COC(=O)c1nc(NC(=O)Nc2ccccc2)c2cc(Cc3ccc(F)cc3)cnc2c1O` displayed a melting point of 254 to 255 °C.

Regarding `CN(C)NC(=O)c1nc(-c2ccc(CO)cc2)c2cc(Cc3ccc(F)cc3)cnc2c1O`, the melting point lay in the range of 219 to 221 °C.

Turning to `COC(=O)c1nc(N2CCCCS2(=O)=O)c2cc(Cc3ccccc3)cnc2c1O`, the melting point is 183 to 185 °C and 186 °C.

`CC(C)NC(=O)c1nc(NS(C)(=O)=O)c2cc(Cc3ccc(F)cc3)cnc2c1O` returned a melting point of 167 to 168 °C.

Turning to `O=C(NCc1ccc(F)cc1)c1c(O)c2ncc(Cc3ccccc3)cc2[nH]c1=O`, the melting point is more than 300 °C.

Take `CC(C)OC(=O)c1cc(C(=O)O)c2cc(Cc3ccc(F)cc3)cnc2c1O`: the melting point is 249 to 251 °C (dec.).

Compound `CCC(=O)c1cc(C(=O)O)c2cc(Cc3ccc(F)cc3)cnc2c1O` returned a melting point of 235 to 237 °C.

The compound `CCCC(=O)c1cc(C(=O)O)c2cc(Cc3ccc(F)cc3)cnc2c1O` came in with a melting point of 232 to 234 °C.

For `CCCCC(=O)c1cc(C(=O)O)c2cc(Cc3ccc(F)cc3)cnc2c1O`, the melting point is 227 to 229 °C.

In turn, `COC(=O)c1cc(C(C)=O)c2cc(Cc3ccc(F)cc3)cnc2c1O` showed a melting point of 166 to 168 °C.

For the compound `COCc1cc(C(=O)OC)c(O)c2ncc(Cc3ccc(F)cc3)cc12`, the melting point was in the range of 110 to 111 °C.

Take `CCN(C=O)c1cc(C(=O)OC)c(O)c2ncc(Cc3ccc(F)cc3)cc12`: the melting point was in the range of 90 to 91 °C.

Consider `COC(=O)c1cc(CN2C(=O)CCCC2=O)c2cc(Cc3ccc(F)cc3)cnc2c1O`, for which the melting point lay within 154 to 156 °C.

`CNC(=O)c1cc(C(=O)O)c2cc(Cc3ccc(F)cc3)cnc2c1O` showed a melting point of 203 to 205 °C.

In turn, `CN(C)C(=O)c1cc(C(=O)O)c2cc(Cc3ccc(F)cc3)cnc2c1O` came in with a melting point of 214.5 to 215.5 °C.

`COC(=O)C=Cc1cc(C(=O)OC)c(O)c2ncc(Cc3ccc(F)cc3)cc12` had a melting point of 139 to 141 °C.

On to `COC(=O)c1cc(C=CC(=O)O)c2cc(Cc3ccc(F)cc3)cnc2c1O`, for which the melting point fell in the range of 235 to 237 °C.

Regarding `COC(=O)c1cc(-c2ccccc2C=O)c2cc(Cc3ccc(F)cc3)cnc2c1O`, the melting point lay in the range of 73 to 75 °C.

`COC(=O)c1cc(NCC(C)C)c2cc(Cc3ccc(F)cc3)cnc2c1O` gave a melting point of 249 to 251 °C.

`COCC(=O)Nc1cc(C(=O)OC)c(O)c2ncc(Cc3ccc(F)cc3)cc12` registered a melting point of 154 to 155 °C.

As for `COC(=O)c1cc(NC(=O)c2ccccc2Cl)c2cc(Cc3ccc(F)cc3)cnc2c1O`, the melting point lay within 230 to 232 °C.

For `COC(=O)c1cc(N2CCNC2=O)c2cc(Cc3ccc(F)cc3)cnc2c1O`, the melting point lay within 248 to 250 °C.

For `CC(=O)N1CCC(OC(=O)c2cc(C(=O)NCCCO)c3cc(Cc4ccc(F)cc4)cnc3c2O)CC1`, the melting point is 97 to 99 °C.

In turn, `COC(=O)c1cc(C(=O)NCCNC(C)=O)c2cc(Cc3ccc(F)cc3)cnc2c1O` yielded a melting point of 251 to 253 °C.

`COC(=O)c1cc(C(=O)NC2CCOCC2)c2cc(Cc3ccc(F)cc3)cnc2c1O` displayed a melting point of 246 to 247 °C.

In turn, `COC(=O)c1cc(C(=O)NNC(=O)c2cccnc2)c2cc(Cc3ccc(F)cc3)cnc2c1O` yielded a melting point of 184 to 185 °C.

In turn, `COC(=O)c1cc(C(=O)NNC(=O)c2ccccn2)c2cc(Cc3ccc(F)cc3)cnc2c1O` yielded a melting point of 164 to 166 °C.

`COCCCNC(=O)c1cc(C(=O)OC)c(O)c2ncc(Cc3ccc(F)cc3)cc12` registered a melting point of 166 to 167 °C.

`COC(=O)c1cc(C(=O)NCCN(C)C)c2cc(Cc3ccc(F)cc3)cnc2c1O` displayed a melting point of 115 to 116 °C.

Compound `COC(=O)c1cc(C(=O)N(C)CC(=O)N(C)C)c2cc(Cc3ccc(F)cc3)cnc2c1O` gave a melting point of 99 to 100 °C.

Compound `COC(=O)c1cc(C(=O)NCCOCCO)c2cc(Cc3ccc(F)cc3)cnc2c1O` came in with a melting point of 162 to 163 °C.

Consider `COC(=O)c1cc(C(=O)N2CCC(O)CC2)c2cc(Cc3ccc(F)cc3)cnc2c1O`, for which the melting point was 196 to 197 °C.

Turning to `CONC(=O)c1cc(C(=O)OC)c(O)c2ncc(Cc3ccc(F)cc3)cc12`, the melting point fell in the range of 200 to 201 °C.

As to `COC(=O)c1cc(C(=O)N2CCCC(=O)C2)c2cc(Cc3ccc(F)cc3)cnc2c1O`, the melting point fell in the range of 228 to 229 °C.

The compound `COC(=O)c1cc(C(=O)NCC(C)C)c2cc(Cc3ccc(F)cc3)cnc2c1O` returned a melting point of 178 to 179 °C.

For the compound `CCOC(=O)CNNC(=O)c1cc(C(=O)OC)c(O)c2ncc(Cc3ccc(F)cc3)cc12`, the melting point lay in the range of 184 to 185 °C.

Compound `COC(=O)c1cc(C(=O)NC2CCN(C(C)=O)CC2)c2cc(Cc3ccc(F)cc3)cnc2c1O` gave a melting point of 214 to 215 °C.

`COC(=O)c1cc(C(=O)NC2CCNCC2)c2cc(Cc3ccc(F)cc3)cnc2c1O` returned a melting point of 232 to 233 °C.

As for `COC(=O)c1cc(C(=O)NNCC(=O)N(C)C)c2cc(Cc3ccc(F)cc3)cnc2c1O`, the melting point was 170 to 172 °C.

Compound `COC(=O)c1cc(NC(=O)c2ccnc(C)c2)c2cc(Cc3ccc(F)cc3)cnc2c1O` (as salt: salt) gave a melting point of 229 to 230 °C.
